Source: US20200172486A1, “PYRIDONE COMPOUNDS AND AGRICULTURAL AND HORTICULTURAL FUNGICIDES CONTAINING THE SAME AS ACTIVE INGREDIENTS” (MITSUI CHEMICALS AGRO, INC., priority 2017, published 2020)

Experiments:
[1] = system: cabbage alternaria sooty spot fungi (Alternaia brassicicola); experiment: Test Example C: cabbage alternaria sooty spot, spray test on potted cabbage plants; details: in Brassica oleracea, read-out: control value
From the text: Control value=100{1−(n/3)}
Test plants (cabbage variety: Shikidori) were cultivated until the cotyledons extended after the sowing of seeds.

[2] = system: gray mold fungi (Botrytis cinerea); experiment: Test Example B: tomato gray mold, spray test on potted tomato plants; details: in Solanum lycopersicum, read-out: control value
From the text: Control value=100{1−(n/3)}
Test plants (tomato variety: Oogata Fukuju) were cultivated until three to five first leaves (true leaves) appeared after the sowing of seeds.

[3] = system: cucumber anthracnose fungi (Colletotrichum orbiculare); experiment: Test Example H: cucumber anthracnose, spray test on potted cucumber plants; details: in Cucumis sativus, read-out: control value

SMILES	pest or weed control at 250 ppm [1]	pest or weed control at 250 ppm [2]	pest or weed control at 250 ppm [3]
CCn1c(-c2ccc(F)cc2Cl)c(N2CCCCC2)cc(Cl)c1=O [Compound 44, 3-chloro-6-(2-chloro-4-fluorophenyl)-1-ethyl-5-(piperidin-1-yl)pyridin-2(1H)-one]	> 50%	> 50%	> 50%
CCn1c(-c2c(F)cccc2F)c(NC(=O)OC(C)(C)C)cc(Cl)c1=O [Compound 1, tert-butyl (5-chloro-2-(2,6-difluorophenyl)-1-ethyl-6-oxo-1,6-dihydropyridin-3-yl)carbamate]	> 50%		
CCN(C)c1cc(Cl)c(=O)n(CC)c1-c1c(F)cccc1F [Compound 5, 3-chloro-6-(2,6-difluorophenyl)-1-ethyl-5-(ethyl(methyl)-amino)pyridin-2(1H)-one]	> 50%	> 50%	> 50%
CCn1c(-c2c(F)cccc2F)c(Nc2ccccc2)cc(Cl)c1=O [compound 317, 3-chloro-6-(2,6-difluorophenyl)-1-ethyl-5-(phenylamino)pyridin-2(1H)-one]	> 50%	> 50%	> 50%
CCn1c(-c2c(F)cccc2F)c(NC)cc(Cl)c1=O [Compound 3, 3-chloro-6-(2,6-difluorophenyl)-1-ethyl-5-(methylamino)-pyridin-2(1H)-one]	> 50%		> 50%
CCN(C(=O)OC(C)(C)C)c1cc(Cl)c(=O)n(CC)c1-c1ccc(F)cc1 [Compound 17, tert-butyl (5-chloro-1-ethyl-2-(4-fluorophenyl)-6-oxo-1,6-dihydropyridin-3-yl)(ethyl)carbamate]			> 50%
CCn1c(-c2c(F)cccc2F)c(N(C)C)cc(Cl)c1=O [Compound 4, 3-chloro-6-(2,6-difluorophenyl)-5-(dimethylamino)-1-ethyl-pyridin-2(1H)-one]	> 50%	> 50%	> 50%
CCNc1cc(Cl)c(=O)n(CC)c1-c1ccc(F)cc1 [Compound 20, 3-chloro-1-ethyl-5-(ethylamino)-6-(4-fluorophenyl)pyridin-2(1H)-one]			> 50%
CCn1c(-c2ccc(F)cc2Cl)c(N2CCC(C)CC2)cc(Cl)c1=O [compound 365, 3-chloro-6-(2-chloro-4-fluorophenyl)-1-ethyl-5-(4-methyl-piperidin-1-yl)pyridin-2(1H)-one]	> 50%	> 50%	> 50%
CCn1c(-c2c(F)cccc2F)c(N)cc(Cl)c1=O [Compound 59, 5-amino-3-chloro-6-(2,6-difluorophenyl)-1-ethylpyridin-2(1H)-one]			> 50%
CCn1c(-c2c(F)cccc2F)c(N=CN2CCCC2)cc(Cl)c1=O [Compound 8, 3-chloro-6-(2,6-difluorophenyl)-1-ethyl-5-((pyrrolidin-1-yl-methylene)amino)pyridin-2(1H)-one]	> 50%	> 50%	> 50%
CCn1c(-c2c(F)cccc2F)c(N(C)C(=O)OC(C)(C)C)cc(Cl)c1=O [Compound 2, tert-butyl (5-chloro-2-(2,6-difluorophenyl)-1-ethyl-6-oxo-1,6-dihydropyridin-3-yl)(methyl)carbamate]	> 50%		
CCn1c(-c2ccc(F)cc2Cl)c(N)cc(Cl)c1=O [Compound 32, 5-amino-3-chloro-6-(2-chloro-4-fluorophenyl)-1-ethylpyridin-2(1H)-one]			> 50%
CCn1c(-c2ccc(F)cc2Cl)c(NC(=O)OC(C)(C)C)cc(Cl)c1=O [Compound 27, tert-butyl (5-chloro-2-(2-chloro-4-fluorophenyl)-1-ethyl-6-oxo-1,6-dihydropyridin-3-yl)carbamate]		> 50%	
CCn1c(-c2c(F)cccc2F)c(N2CCOCC2)cc(Cl)c1=O [compound 426, 3-chloro-6-(2,6-difluorophenyl)-1-ethyl-5-morpholinopyridin-2(1H)-one]	> 50%	> 50%	> 50%
